# Results published in patent US11484484B2, “Composition for alleviating skin barrier dysfunction” (LG HOUSEHOLD & HEALTH CARE LTD., priority 2018, dated 2022).
# Entries after “also recorded” stand apart in the source; their conditions may differ.
# How the values were obtained:
# [1] = tested on: HaCaT cells introduced with the GFP-LC3 vector; test: Screening for autophagy activation: GFP-LC3 puncta quantification; format: cell-based, human; conditions: for proportion of cells with increased GFP-LC3 puncta vesicles: fluorescence microscopy
# Description: A GFP (green fluorescence protein)-conjugated microtubule-binding protein 1 light chain 3 (LC3) expression vector (Cell Biolabs, USA) was introduced into HaCaT cells using Lipofectamine 2000 (Invitrogen, USA), which is a gene transfer reagent, and the resultant was cultured for 12 hours in a condition containing 10% FBS and then treated with candidate compounds expected to promote autophagy, which was selected from a library of single compounds derived from natural substances, at each concentration in the medium. Subsequently, the evaluation was performed by fluorescence microscopy (Leica Microsystems, USA). In order to quantify the induction of autophagy, 100 GFP-positive cells in which puncta autophagosomes were formed (punctae=5) were counted using fluorescence microscopy. In order to improve the barrier function by promoting epidermal differentiation through the activation of autophagy, which is reduced due to aging or external stimuli, a search was conducted starting from a library of single compounds derived from natural substances for those that promote autophagic activity of keratinocytes. Specifically, as in the method of Example 3, candidate compounds expected to promote autophagy were treated to HaCaT cells introduced with the GFP-LC3 vector. Thereafter, the number of cells with increased GFP-LC3 puncta vesicles in the cytoplasm was increased as GFP was conjugated to LC3, which was converted into a membrane-bound form when autophagy was induced in each cell, was compared.
# [2] = tested on: reconstructed human epidermis model (Neoderm-E); test: LC3-II production in 3D artificial skin model; format: cell-based; conditions: 1% cream formulation, after 24 hours
# Description: (§1) A reconstructed human epidermis model (Neoderm-E, Tego Science, Korea) was transferred to a 6-well plate and stabilized in 2 mL of a growth medium (Tego Science, Korea) for 24 hours, and the cream-type hydroxycinnamic acid, isoamyl acetate, and betaine were applied to the artificial skin at each concentration. After culturing for 24 hours, the hydroxycinnamic acid, isoamyl acetate, and betaine cream applied on the artificial skin were washed with phosphate buffer saline (PBS), and then the tissue was disrupted using a RIPA buffer (50 mM Tris-HCl, pH 7.4, 150 mM NaCl, 1% NP-40) containing Protease Inhibitor Cocktails (ThermoFisher Scientific, USA) by sonication. The tissue-extracted proteins were analyzed for the autophagic activity of keratinocytes in the tissue by western blotting analysis. 1% creams of hydroxycinnamic acid, isoamyl acetate, and betaine were applied on the artificial skin, followed by H&E staining after 1 week to confirm the increase in thickness of the epidermis.
# In order to confirm whether the differentiation in the epidermis is promoted by the effect of promoting autophagy by way of betaine, hydroxycinnamic acid, and isoamyl acetate, a 3D artificial skin model was used as in Example 5. […] After 24 hours, the degree of LC3-II production was measured through western blotting analysis to determine whether autophagy in the epidermis was promoted.
# [3] = tested on: LC3-II; test: LC3-II production by western blotting in keratinocytes; format: cell-based, human; conditions: HaCaT cells
# Source text: (§2) HaCaT cells were inoculated into a 60 mm plate at a concentration of 8×10^5 cells and independently treated with hydroxycinnamic acid, isoamyl acetate, and betaine the next day, and then the cells were eluted with a 5× lysis buffer to obtain proteins. Cell debris was removed by centrifugation and quantified using a BCA protein assay kit (Pierce, USA). The cell-extracted proteins were isolated using a 4%-15% SDS-PAGE gel (Bio-Rad, USA) and transferred to a nitrocellulose membrane (Life Technologies, New Zealand). The cells were then blocked with a TBST buffer containing 3% BSA for 1 hour and thereupon reacted in a buffer solution containing primary antibodies at 4° C. for 1 day. The membrane was washed with TBST, reacted with peroxidase-conjugated secondary antibodies, and then colored using enhanced chemiluminescence (Amersham, UK), and the immune-reactive bands were confirmed with the Fusion FX 5 image system (Vilber Lourmat, France).
# The cytotoxicity of betaine on keratinocytes was confirmed, and the results of Experimental Example 1 were confirmed by the western blotting analysis of Example 4 to determine the degree of production of LC3-II converted as it entered into the double membranes of the autophagosomes. […] Additionally, the cells were treated with 50 μg/mL betaine and the amount of LC3-II conversion per hour was observed.
# [4] = tested on: AKT-mTOR-S6 pathway; test: Phosphorylation of AKT-mTOR-S6 pathway by western blotting; format: cell-based, human; conditions: HaCaT cells
# Source text: as §2
# In previous studies, betaine—homocysteine methyltransferase (BHMT) has been reported to reduce the amount of homocysteine in a betaine-dependent manner. In one study, homocysteine was reported to promote the activity of mTORC1, an enzyme that inhibits autophagy. Thus, in order to find a mechanism by which autophagy is promoted by betaine, an experiment was conducted to identify related upstream signaling factors. […]
# [5] = tested on: LC3-II, p62/SQSTM1; test: Autophagosome synthesis mechanism: co-treatment with bafilomycin A1, LC3-II and p62 western blotting; format: cell-based, human
# Source text: as §2
# Therefore, in order to investigate a mechanism by which the autophagosomes are increased by way of betaine treatment, the cells were treated with bafilomycin A1 (Baf. A1), which is known as a lysosomal activity inhibitor, together with betaine, and the degree of LC3-II production was confirmed by western blotting analysis.
# [6] = tested on: HaCaT cells; format: cell-based; conditions: 10 μg/mL, 50 μg/mL and 100 μg/mL
# [7] = tested on: reconstructed human epidermis model (Neoderm-E); test: Epidermal thickness in 3D artificial skin model; format: cell-based; conditions: 1% cream formulation; for Increase relative to Control: epidermal thickness ratio
# Description: as §1
# Next, the cream formulations of 1% betaine, 1% hydroxycinnamic acid, and 1% isoamyl acetate were applied to the artificial skin, and changes in the thickness of the epidermis were measured after […] staining of the artificial skin tissue.
# [8] = general description of the substance; cited from earlier work
structure (smiles),measurement,setting,value
"C[N+](C)(C)CC(=O)[O-] [betaine, trimethylglycine]","number of cells with increased GFP-LC3 puncta vesicles, increase compared to the untreated group",[1],18.75%
same,proportion of cells with increased GFP-LC3 puncta vesicles,[1],25%
same,autophagy (degree of LC3-II production) in the epidermis,[2],autophagy was increased
same,"amount of LC3-II conversion, from 12 hours","[3]; 50 μg/mL, 12 hours",the amount of conversion increased
same,"amount of LC3-II conversion, after 24 hours","[3]; 50 μg/mL, 24 hours",the highest conversion was observed; also recorded: conversion mostly occurred
same,"amount of LC3-II conversion, until 6 hours","[3]; 50 μg/mL, until 6 hours",a significant increase was not observed
same,amount of LC3-II by concentration,"[3]; 10, 50, 100 μg/mL, western blotting",increased as the concentration increased
same,mTOR signals (degree of phosphorylation of the AKT-mTOR-S6 pathway),[4],not possible to observe a significant difference; also recorded: no significant difference
same,amount of p62/SQSTM1 (p62) protein,"[5]; betaine treatment, western blotting",reduced; also recorded: decrease
same,amount of LC3-II with bafilomycin A1 together with betaine compared to betaine alone,[5]; co-treatment with lysosomal activity inhibitor bafilomycin A1,further increased
same,cytotoxicity,[6],no cytotoxicity was observed
same,Thickness of Epidermis,[7],74 μm
same,epidermal thickness increase compared to the control group,[7],19%
same,Increase relative to Control,[7],1.19
CC(=O)OCCC(C)C [isoamyl acetate],proportion of cells with increased GFP-LC3 puncta vesicles,[1],16.4%
same,autophagy (degree of LC3-II production) in the epidermis,[2],autophagy was increased
same,solubility,[8],"not well soluble in water, but soluble in alcohol and organic solvents"
same,Thickness of Epidermis,[7],85 μm
same,epidermal thickness increase compared to the control group,[7],37%
same,Increase relative to Control,[7],1.37
